Laboratory results published in US10550099B2 (FORMA Therapeutics, Inc., priority 2014, dated 2020).
Where two headings read alike, the source gives them in different places.

Experiments:
[1] = target: IDH1-R132H recombinant protein (Homo sapiens (Human), UniProt O75874, R132H); assay: IDH1-R132H enzymatic assay (diaphorase/resazurin readout of NADPH consumption); type: biochemical; conditions: IDH1-R132H enzyme; read-out: Enzyme IDH1 R132H IC50 (Range)
Experimental: (§1) Assays were performed in a 384-well black plate. An aliquot of 250 nL of compound was incubated with 10 μL of 30 nM IDH1-R132H or 10 nM IDH1-R132C recombinant protein in assay buffer (50 mM Tris pH=7.5, 150 mM NaCl, 5 mM MgCl2, 0.1% (w/v) Bovine Serum Albumin, and 0.01% Triton X-100) in each well at 25° C. for 15 minutes. After the plate was centrifuged briefly, an aliquot of 10 μL of 2 mM α-ketoglutarate and 20 μM NADPH solution prepared in assay buffer was then added to each well and the reaction was maintained at 25° C. for 45 minutes. An aliquot of 10 μL of diaphorase solution (0.15 U/mL diaphorase and 30 μM Resazurin in assay buffer) was added to each well. The plate was maintained at 25° C. for 15 minutes and then read on a plate reader with excitation and emission wavelengths at 535 nm and 590 nm, respectively. The IC50 of a given compound was calculated by fitting the dose response curve of inhibition of NADPH consumption at a given concentration with the four parameter logistic equation.

[2] = system: HCT116 isogenic IDH1-R132H mutant cells; assay: Cellular 2-HG assay using HCT116 mutant IDH1 cells (IDH1-R132H), RapidFire mass spectrometry; type: cell-based
Experimental: (§2) Example 106—Cellular 2-HG Assay Using HCT116 Mutant IDH1 Cells
(§3) HCT116 isogenic IDH1-R132H and IDH1-R132C mutant cells were cultured in growth media (McCoy's 5A, 10% fetal bovine serum, 1× antibiotic-antimycotic solution and 0.3 mg/mL G418) in 5% CO2 in an incubator at 37° C. To prepare the assay, cells were trypsinized and resuspended in assay media (McCoy's 5A with no L-glutamine, 10% fetal bovine serum, 1× antibiotic-antimycotic solution and 0.3 mg/mL G418). An aliquot of 10,000 cells/100 μL was transferred to each well of a clear 96-well tissue culture plate. The cells were incubated in 5% CO2 at 37° C. in an incubator overnight to allow for proper cell attachment. An aliquot of 50 μL of compound containing assay media were then added to each well and the assay plate was kept in 5% CO2 at 37° C. in an incubator for 24 hours. The media was then removed from each well and 150 μL of a methanol/water mixture (80/20 v/v) was added to each well. The plates were kept at −80° C. freezer overnight to allow for complete cell lysis. An aliquot of 125 μL of extracted supernatant was analyzed by RapidFire high-throughout-mass spectrometry (Agilent) to determine the cellular 2-HG level. The IC50 of a given compound was calculated by fitting the dose response curve of cellular 2-HG inhibition at a given concentration with the four parameter logistic equation.

[3] = target: IDH1-R132C recombinant protein (Homo sapiens (Human), UniProt O75874, R132C); assay: IDH1-R132C enzymatic assay (diaphorase/resazurin readout of NADPH consumption); type: biochemical; conditions: IDH1-R132C enzyme; read-out: Enzyme IDH1 R132C IC50 (Range)
Experimental: as §1

[4] = system: HCT116 isogenic IDH1-R132C mutant cells; assay: Cellular 2-HG assay using HCT116 mutant IDH1 cells (IDH1-R132C), RapidFire mass spectrometry; type: cell-based
Experimental: as §2, §3

[5] = Homo sapiens, HCT-116, read-out: HCT116 IDH1 R132H IC50 (Range)
[6] = Homo sapiens, HCT-116, read-out: HCT116 IDH1 R132C IC50 (Range)

Sequence of IDH1-R132C recombinant protein (O75874 whole entry R132C): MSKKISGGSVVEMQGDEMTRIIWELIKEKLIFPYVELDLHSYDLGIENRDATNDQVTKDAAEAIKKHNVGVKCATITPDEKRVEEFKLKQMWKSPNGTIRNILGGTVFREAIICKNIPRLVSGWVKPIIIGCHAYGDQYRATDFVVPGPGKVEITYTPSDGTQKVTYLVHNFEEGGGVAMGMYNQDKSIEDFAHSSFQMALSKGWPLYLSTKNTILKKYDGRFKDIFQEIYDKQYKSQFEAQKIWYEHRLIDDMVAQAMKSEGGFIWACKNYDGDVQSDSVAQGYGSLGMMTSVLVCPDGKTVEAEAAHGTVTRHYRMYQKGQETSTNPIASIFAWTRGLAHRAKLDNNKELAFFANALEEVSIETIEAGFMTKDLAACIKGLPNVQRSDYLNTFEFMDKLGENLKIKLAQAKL
Sequence of IDH1-R132H recombinant protein (O75874 whole entry R132H): as the sequence (O75874 whole entry R132C) above, with C132H counted along it

Structure (SMILES) | IC50 [1] | IC50 [2, 5] | IC50 [3] | IC50 [4, 6] | IC50 ([2]; read-out: HCT116 IDH1 R132H IC50 (Range)) | IC50 ([4]; read-out: HCT116 IDH1 R132C IC50 (Range))
Cc1[nH]ncc1-c1ccnc(N[C@@H](C)c2cc3cc(Cl)ccc3[nH]c2=O)n1 [I-83] | 0.1 to 1 µM | 1 to 10 µM | 1 to 10 µM | 0.1 to 1 µM | – | –
CC(C)Cn1nccc1-c1ccnc(N[C@@H](C)c2cc3cc(Cl)ccc3[nH]c2=O)n1 [I-85] | 0.1 to 1 µM | 0.1 to 1 µM | 0.1 to 1 µM | 0.1 to 1 µM | – | –
COC(=O)C(c1ccnc(N[C@@H](C)c2cc3cc(Cl)ccc3[nH]c2=O)n1)S(C)(=O)=O (stereo partly shown) [I-134] | – | – | > 10 µM | – | – | –
COc1nc(N[C@H](C)c2nc3cc(Cl)ccc3[nH]c2=O)ncc1C#N [I-157] | 0.1 to 1 µM | – | 1 to 10 µM | – | < 0.1 µM | 0.1 to 1 µM
